This note sets out measurements from article PMC5711933, “Intracellular biomass flocculation as a key mechanism of rapid bacterial killing by cationic, amphipathic antimicrobial peptides and peptoids” (Scientific Reports, 2017).

Data set [1] in a line: RP-HPLC elution (% ACN) as measure of hydrophobicity. It counts as physicochemical. The conditions noted are these: chromatographic hydrophobicity; gradient of 5–95% acetonitrile (ACN) over 45 minutes, C18 column, 0.2 mL/min; average of three replicates.
The test system of data set [2] is E. coli ATCC 35218. The data set can be described thus: Bacterial count by plating after treatment, before TEM sample preparation. It counts as cell-based.
Procedure: E. coli ATCC 35218, grown overnight at 35 °C in Mueller-Hinton broth (MHB), were resuspended in 1X (150 mM) PBS, pH 7.4, and diluted to a concentration of 1 × 10^8 CFU/mL. Aqueous peptide/peptoid stock solutions were added to 1 mL aliquots of the suspension to the desired final concentration. After 1 hour, small volumes of each sample were serially diluted, plated, and incubated overnight at 35 °C, to be counted the following day. The remaining volume of each sample was centrifuged, and the pellet resuspended and enrobed in 5–10 µL of 2% low-melting agarose (gelling temperature 25° ± 5 °C) then drawn up into the tip of a Pasteur pipette. The solidified rods were extruded into fixative (2% glutaraldehyde, 2% paraformaldehyde, 50 mM PBS, pH 7.4). […] 50 nm thin sections of embedded samples were cut using a diamond knife, stained for 5 min in 5% aqueous uranyl acetate, then rinsed in H2O. Sections were examined in a JEOL 1230 TEM. Experimental conditions were each repeated in at least two independent trials. For each replicate of each sample, bacteria across the thin section were first surveyed to determine morphological characteristics representative of that sample, then images were captured of at least five bacteria displaying those morphologies with an emphasis on clean (i.e., orthogonal) transverse and/or longitudinal sections. Each image shown is thus representative of the ultrastructural characteristics observed in bacteria throughout a given sample and between replicates.
The test system of data set [3] is E. coli ATCC 35218. Format: cell-based. The settings on record: CAMHB, 35 °C, 16 h, final 5 × 10^5 CFU/mL; reproducible between three independent replicates.
Procedure: MICs were determined according to CLSI M7-A6 protocols in a 96-well microtiter plate. In test wells, 50 μL bacterial inoculum (1 × 10^6 CFU/ml) in cation-adjusted Mueller-Hinton broth (CAMHB) was added to 50 μL peptoid solution in CAMHB (prepared by 1:2 serial dilutions). Positive controls contained 50 μL inoculum and 50 μL CAMHB without peptoid. […] MIC values reported were reproducible between three independent experimental replicates, each consisting of two parallel trials.
The test system of data set [4] is Bioluminescent P. aeruginosa. Format: cell-based, Pseudomonas aeruginosa. The settings on record: 12.5 µM, LB, 37 °C, 10 min; average of three independent experiments with two replicates each.
Procedure: The decrease in bioluminescence at 37 °C was measured for a range of concentrations from 0 – 100 μM (Supp. Figs. S6 and S7).
Bioluminescent P. aeruginosa [73] was grown at 37 °C in Luria-Bertani (LB) broth. […] In a 96-well plate, 50 µL of P. aeruginosa solution (1 × 10^6 CFU/mL) was added to 50 µL of antimicrobial solution, and the bioluminescence was measured using an IVIS imaging system (a Xenogen product from Caliper Life Sciences, Hopkinton, MA) at 10 min intervals for 2 h. The reported values are the average of three independent experiments with two replicates each.
Data set [5] concerns E. coli ATCC 35218. The data set can be described thus: Bacterial count by plating after 1-hour treatment, before SEM sample preparation. The settings on record: 1 hour in PBS, control 5 × 10^5 CFU/mL. It counts as cell-based. The protocol:
E. coli was treated with 10 μM peptide or peptoid for 1 hour in phosphate-buffered saline (PBS). […] We used 10 μM peptide/peptoid for all samples since it is near the MICs of the majority of the oligomers.
Before fixation, aliquots of each samples were serially diluted and plated on agar to determine the concentration of live bacteria remaining after the 1-hour treatment. […] (1) SEM samples were treated in PBS (as discussed above), whereas MIC assays are performed in cation-adjusted Mueller-Hinton broth. AMPs and ampetoids are known to interact with ions in the media (for example, when switching from plain Mueller-Hinton broth to cation-adjusted Mueller-Hinton broth)[1], so differences in activity may be due to changes in media composition. (2) the treatments were for one hour only, whereas MICs are determined after 16 hours of growth. […] (3) Some of these compounds may cause inhibition of growth without causing bacterial cell death (i.e., they are bacteriostatic—which is what the MIC indicates—rather than bactericidal—which is determined by plating and counting colonies). […]
Overnight cultures of E. coli ATCC 35218 were centrifuged for 10 min and 2500 × g at room temperature, then resuspended in PBS. […] Bacterial concentrations of the diluted suspensions were calculated from their OD590 values using optical density curves derived from pre-determined concentrations. […]

Another data set deals with EGFP-Luc plasmid. The data set can be described thus: DNA retardation assay (gel electrophoresis). It counts as binding. The settings on record: EGFP-Luc plasmid in TBS, complexes 20 min at room temperature, 1–2% agarose gel.
In a further data set the test system is Erythrocytes. As to the kind of experiment: Hemolysis assay. The conditions noted are these: human erythrocytes in PBS pH 7.4, 1 h at 37 °C, A350; three independent replicates (two for LL-37 and fowlicidin-1). It counts as cell-based. The protocol:
The plate was then centrifuged at 1200 g for 15 min, 100 μL of the supernatant from each well transferred to a fresh microtiter plate, and A350 measured.

Non-standard residues stand in square brackets, D forms with d. Residues, ends and D or L forms follow the SMILES beside them. Nspe = C[C@H](NCC(=O)O)c1ccccc1; Nlys = NCCCCNCC(=O)O

Procedure for EGFP-Luc plasmid: DNA retardation was analyzed by gel electrophoresis. Peptoid/peptide-DNA complexes were formed by adding 10 µL of peptide/peptoid solution of varying concentrations to 10 µL DNA solution (EGFP-Luc plasmid in Tris-buffered saline (TBS) buffer), and the resulting solution was mixed by gentle aspiration. Complexes were incubated for 20 min at room temperature. After complex formation, 20 µL of each sample were loaded onto a 1–2% agarose gel in Tris/borate/EDTA (TBE) buffer, which ran at 120 V for 15 min. DNA bands on the gel were visualized under UV light by ethidium bromide staining.

For `C[C@@H](c1ccccc1)N(CC(N)=O)C(=O)CN(C(=O)CN(CCCCN)C(=O)CN(C(=O)CN(C(=O)CN(CCCCN)C(=O)CN(C(=O)CN(C(=O)CN(CCCCN)C(=O)CN(C(=O)CN(C(=O)CNCCCCN)[C@@H](C)c1ccccc1)[C@@H](C)c1ccccc1)[C@@H](C)c1ccccc1)[C@@H](C)c1ccccc1)[C@@H](C)c1ccccc1)[C@@H](C)c1ccccc1)[C@@H](C)c1ccccc1` [compound 1] (H-[Nlys][Nspe][Nspe][Nlys][Nspe][Nspe][Nlys][Nspe][Nspe][Nlys][Nspe][Nspe]-NH2), the “% ACN at RP-HPLC elution” value in data set [1] worked out at 64.2%. In the data set on E. coli ATCC 35218 [2] (10 µM, 1 hour in PBS pH 7.4, control 1 × 10^8 CFU/mL), the “TEM: Bacterial count after 10 µM treatment (% of control)” value was 0.2 % of control. In the data set with E. coli ATCC 35218 [2] (100 µM, 5 minutes), the “Bacteria remaining after 5-min treatment” value is 1 × 10^4 CFU/mL and the “Bacteria remaining after 5-min treatment (% of bacteria in the control)” value turned out to be 0.01%. In addition, in the data set with E. coli ATCC 35218 [2] (100 µM, 1 hour in PBS pH 7.4, control 1 × 10^8 CFU/mL), the “TEM: Bacterial count after 100 µM treatment (% of control)” value is given as 0 (0) % of control. For the same molecule, in the data set on E. coli ATCC 35218 [2] (100 µM, 15, 30 and 60 minutes), the “Bacterial killing after 15-min, 30-min, and 60-min treatments” value is on record as “all bacteria were killed”. The “E. coli ATCC 35218 MIC” value in the data set with E. coli ATCC 35218 [3] was determined as 6.3 µM. Besides, the “Decrease in bioluminescence within 10 min” value in data set [4] is on record as ~ 99.9%. In the data set on E. coli ATCC 35218 [5], the “SEM: Bacterial count after 10 µM treatment (% of control)” value is reported as 40 % of control. For the same molecule, the “Retardation assay: mass of compound required to completely retard migration of 1 µg of DNA” value with EGFP-Luc plasmid came out at 3.0 µg. Also, in the data set on Erythrocytes, the “HD10 (hemolytic dose; concentration for 10% hemolysis)” value turned out to be 14 µM and the “HD50 (hemolytic dose; concentration for 50% hemolysis)” value came out at 62 µM.
